Biological target: T1, CrLAMT (Catharanthus roseus, UniProt B2KPR3)
T1 construct: gene LAMT; pBI121 vector, expressed in Nicotiana benthamiana
T1 sequence (B2KPR3 1-371): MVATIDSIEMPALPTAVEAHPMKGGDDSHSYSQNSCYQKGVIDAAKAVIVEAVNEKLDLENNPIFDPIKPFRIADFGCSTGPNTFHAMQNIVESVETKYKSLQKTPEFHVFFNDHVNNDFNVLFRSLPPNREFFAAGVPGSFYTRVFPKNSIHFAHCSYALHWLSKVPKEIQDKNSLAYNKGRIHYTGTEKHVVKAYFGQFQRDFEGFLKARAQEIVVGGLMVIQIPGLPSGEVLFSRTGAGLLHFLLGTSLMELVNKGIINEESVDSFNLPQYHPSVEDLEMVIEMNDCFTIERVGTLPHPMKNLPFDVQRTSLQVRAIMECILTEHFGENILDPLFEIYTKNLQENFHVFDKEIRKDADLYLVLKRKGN
Assay: HPLC of product loganin
Type: cell-based
Conditions: expressed in N. benthamiana; preparation of the HPLC assay not told

## C[C@@H]1[C@H]2[C@H](O[C@@H]3O[C@H](CO)[C@@H](O)[C@H](O)[C@H]3O)OC=C(C(=O)O)[C@H]2C[C@@H]1O [loganic acid]
  HPLC of product loganin: production of loganin by CaLAMT, CrLAMT, and CoLAMT using loganic acid as the substrate

— publication PMC12860560, “Chromosome-level genome assembly of Cornus officinalis reveals the evolution of loganin biosynthesis” (Horticulture Research, 2025)
